# Data taken from patent US5698551A, “Heterocyclic compounds” (Novo Nordisk A/S, priority 1995, dated 1997).
# Test system: NMRI female mice
# Assay: Inhibition of formalin induced pain response in mice
# Assay type: in vivo
# Conditions: at 0.1 mg/kg, 1% formalin into left hind paw
# Description: Formalin induced pain or paw oedema
# Values for in vivo inhibition of formalin induced pain or oedema for the compounds of the present invention were assessed in mice essentially by the method of Wheeler-Aceto and Cowan (Agents Action 1991, 34, 265-269).
# About 20 g NMRI female mice were injected […] 1% formalin into the left hind paw. The animals were then placed on a heated (31° C.) table, and the pain response was scored. After 1 h they were killed and bled. Left and right hind paws were removed and the weight difference between the paws was used as indication of the oedema response of the formalin injected paw.
# Values for inhibition of formalin induced pain response for some representative compounds are recorded in table 1.
row,Compound,% Pain inhibition (inhibition of formalin induced pain response)
1,"Cl.O=C(O)[C@@H]1CCCN(CCCN2C(=O)c3ccccc3Nc3ccccc32)C1 [Example 1, (R)-1-(3-(11-Oxo-10,11-dihydro-5H-dibenzo[b,e][1,4]diazepin-10-yl)-1-propyl)-3-piperidinecarboxylic acid hydrochloride]",13%
2,"Cl.O=C(O)[C@@H]1CCCN(CCCN2C(=O)c3ccccc3CCc3ccccc32)C1 [Example 2, (R)-1-(3-(6-Oxo-11,12-dihydro-5H-dibenz[b,f]azocin-5-yl)-1-propyl)-3-piperidinecarboxylic acid hydrochloride]",34%
3,"Cl.O=C(O)[C@@H]1CCCN(CCCN2Cc3ccccc3Cc3ccccc32)C1 [Example 3, (R)-1-(3-(6,11-Dihydro-5H-dibenz[b,e]azepin-5-yl)-1-propyl)-3-piperidine-carboxylic acid hydrochloride]",36%
4,"Cl.O=C(O)[C@@H]1CCCN(CCCn2c(=O)c3ccccc3c(=O)c3ccccc32)C1 [Example 4, (R)-1-(3-(6,11-Dioxo-6,11-dihydro-5H-dibenz[b,e]azepin-5-yl)-1-propyl)-3-piperidine-carboxylic acid hydrochloride]",28%
5,"Cl.Cl.O=C(O)[C@@H]1CCCN(CCCN2Cc3ccccc3CCc3ccccc32)C1 [Example 6, (R)-1-(3-(5,6,11,12-Tetrahydro-dibenz[b,f]azocin-5-yl)-1-propyl)-3-piperidinecarboxylic acid dihydrochloride]",22%
